Measurements reported in article PMC5623046, “A Simple PB/LIE Free Energy Function Accurately Predicts the Peptide Binding Specificity of the Tiam1 PDZ Domain” (Frontiers in Molecular Biosciences, 2017).
Where “and” joins values, the source holds several entries; their conditions need not be identical. Equal values may be shown once. Read-outs that look alike come from different tables or passages of the source. Marks after values point to notes of the source that are not given here.

How the values were obtained:
[1] = molecular target: T1, wildtype Tiam1 PDZ domain (WT) (Homo sapiens, UniProt Q13009); conditions: relative to WT:Sdc1; ref Shepherd et al., [2011]; Liu et al., [2013]; cited from earlier work
T1 construct: The Tiam1 PDZ domain was purified by nickel-chelate (GE-Healthcare) and size-exclusion chromatography; His6 (N, cleaved yes); made in house; host or cells: Escherichia coli BL21(DE3)
T1 sequence (Q13009 841-930 limits assumed): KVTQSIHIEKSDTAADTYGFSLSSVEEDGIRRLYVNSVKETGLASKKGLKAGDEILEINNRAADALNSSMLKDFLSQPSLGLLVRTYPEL
Source text: Table 1 Tiam1-PDZ:peptide complexes and free energies used for model fitting. | column: Exp.^a || Table 2 Tiam1-PDZ:peptide complexes and free energies not used for model fitting. | column: Exp.^a || Table 4 Alchemical free energy simulation (FEP) results. | column: Exp. || (+ 3 further places)

[2] = molecular target: T1, wildtype Tiam1 PDZ domain (WT); assay: Fluorescence anisotropy binding of dansylated peptides; conditions: for Exp. relative binding free energy ΔΔG: relative to WT:Sdc1, this work, dansylated peptide 5–10 μM, 20 mM sodium phosphate, 50 mM NaCl, pH 6.8, 25°C, triplicate
Experimental: Typically, E. coli cells were grown at 37°C in Luria-Bertani (LB) medium supplemented with ampicillin (100 μg/mL) under vigorous agitation until an A600 of 0.6–0.8 was reached. Cultures were subsequently cooled to 18°C and protein expression was induced by the addition of isopropyl 1-thio-β-d-galactopyranoside (IPTG) to 1 mM final concentration. Induced cells were incubated for an additional 16–18 h at 18°C and harvested by centrifugation. The Tiam1 PDZ domain was purified by nickel-chelate (GE-Healthcare) and size-exclusion chromatography (Shepherd et al., [2010]). […] Undigested protein, cleaved His6 tag and His-tagged rTEV were separated from Tiam1 PDZ domain by nickel-chelate chromatography. The final yield was 20 mg of PDZ protein (>98% pure as judged by SDS-PAGE) from 1 L of culture. Samples were used immediately or lyophilized and stored at […].
All peptides were chemically synthesized by GenScript Inc. (Piscataway, NJ) and judged to be >95% pure based on analytical HPLC and mass spectrometry. Peptides were dansylated at their N-terminus. Peptide concentrations were determined by absorbance measurements (A280) using their predicted extinction coefficient. The peptides used in this study were Syndecan1 (Sdc1) point mutants and double mutants: Sdc1 (residues 303–310 of the full Syndecan protein: TKQEEFYACOOH), Sdc1-A0M (residues 303–310: TKQEEFYMCOOH), Sdc1-F2R (residues 303–310: TKQEERYACOOH), Sdc1-F2R/A0M (residues 303–310: TKQEERYMCOOH), Sdc1-F2A (residues 303–310: TKQEEAYACOOH), Sdc1-F2N (residues 303-310: TKQEENYACOOH), Sdc1-F2I (residues 303–310: TKQEEIYACOOH), Sdc1-E4L (residues 303–310: TKQLEFYACOOH), Sdc1-E3D/Y1T (residues 303–310: TKQEDFTACOOH), and Sdc1-E3T/Y1K (residues 303–310: TKQETFKACOOH). Notice that here and below, for the Sdc1 and other peptides, we number residue positions counting backwards from the peptide C-terminus (position 0). Thus, Sdc1-F2R is mutated at the third position from the C-terminus, which is usually called “position −2” (Shepherd and Fuentes, [2011]). We drop the negative sign to keep the notation simple.
Fluorescence anisotropy was used to monitor the binding of Tiam1 PDZ domain proteins to dansylated peptides. Anisotropy measurements were carried out on a Fluorolog3 (Jobin Yvon, Horiba, NJ) spectrofluorimeter (γex = 340 and γem = 550 nm). All data collection, fitting, and thermodynamic analyses were performed as previously described (Shepherd et al., [2011]). Binding experiments were conducted in 1.3 mL of binding buffer (20 mM sodium phosphate, 50 mM NaCl and pH 6.8) containing peptide at a concentration of 5–10 μM. Measurements were made in a 2 mL quartz cuvette that was stirred and maintained at constant 25°C temperature. The slit widths for the control of excitation and emission intensity were adjusted to the signal-to-noise ratio and maximum intensity and set in the range of 6–9 nm. A ratio of 1:100 and 1:10 dilutions of the stock PDZ protein solution (~1 mM) were prepared in binding buffer. For each experiment, 20–30 individual titration steps were performed until the sample had little or no change in anisotropy. The change in fluorescence anisotropy was plotted against protein concentration and fit to a standard hyperbolic ligand-binding curve. Each titration was carried out in triplicate.

[3] = molecular target: Syndecan-1 (Sdc1) peptide (Homo sapiens) (UniProt P18827); conditions: cited from earlier work
Sequence of Syndecan-1 (Sdc1) peptide (Homo sapiens) (P18827 23-310): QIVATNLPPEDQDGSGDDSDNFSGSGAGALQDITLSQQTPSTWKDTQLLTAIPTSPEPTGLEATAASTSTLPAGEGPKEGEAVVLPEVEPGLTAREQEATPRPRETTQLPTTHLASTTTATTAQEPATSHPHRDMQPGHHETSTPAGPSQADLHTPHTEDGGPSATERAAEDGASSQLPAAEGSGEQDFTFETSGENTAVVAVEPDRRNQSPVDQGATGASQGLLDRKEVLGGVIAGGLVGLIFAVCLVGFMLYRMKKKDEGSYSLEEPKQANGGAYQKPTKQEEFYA

[4] = tested on: Tiam1 PDZ domain L911M,K912E; conditions: relative to WT:Sdc1; ref Shepherd et al., [2011]; Liu et al., [2013]; cited from earlier work
Source text: (§1) Table 1 Tiam1-PDZ:peptide complexes and free energies used for model fitting. | column: Exp.^a || Table 2 Tiam1-PDZ:peptide complexes and free energies not used for model fitting. | column: Exp.^a

[5] = tested on: Tiam1 PDZ domain quadruple mutant (QM); conditions: relative to WT:Sdc1; ref Shepherd et al., [2011]; Liu et al., [2013]; cited from earlier work
Source text: as §1

[6] = tested on: Tiam1 PDZ domain L915F,L920V; conditions: relative to WT:Sdc1; ref Shepherd et al., [2011]; Liu et al., [2013]; cited from earlier work
Source text: as §1

[7] = tested on: Tiam1 PDZ domain L920V; conditions: ref Shepherd et al., [2011], Liu et al., [2013], cited from earlier work; for Exp. relative binding free energy ΔΔG: relative to WT:Sdc1
Source text: Table 1 Tiam1-PDZ:peptide complexes and free energies used for model fitting. | column: Exp.^a || Tables 1, 2 list the 44 peptide and protein variants for which experimental binding data are available along with the corresponding binding free energy differences (ΔΔG) relative to the wildtype:Sdc1 complex (WT:Sdc1), taken as a reference. Notice that positions within each peptide ligand are numbered backwards from the C-terminus (“position 0”). For two complexes, experimental measurements were not available and ΔΔG was obtained in this work using rigorous alchemical free energy simulations (see below). Seventeen of the complexes involve Tiam1 mutations at one or more of four positions. These ...

[8] = tested on: Tiam1 PDZ domain L911M; conditions: relative to WT:Sdc1; ref Shepherd et al., [2011]; Liu et al., [2013]; cited from earlier work
Source text: (§2) Table 1 Tiam1-PDZ:peptide complexes and free energies used for model fitting. | column: Exp.^a

[9] = tested on: Tiam1 PDZ domain L915F; conditions: relative to WT:Sdc1; ref Shepherd et al., [2011]; Liu et al., [2013]; cited from earlier work
Source text: as §2

[10] = tested on: Tiam1 PDZ domain K912E; conditions: relative to WT:Sdc1; ref Shepherd et al., [2011]; Liu et al., [2013]; cited from earlier work
Source text: as §2

Sequence of Tiam1 PDZ (Q13009 842-911): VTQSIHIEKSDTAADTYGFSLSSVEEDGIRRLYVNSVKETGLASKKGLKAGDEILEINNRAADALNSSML

**Q.** With “YAAEKYWA [peptide from a combinatorial library]” as the substance, how does the “Exp. relative binding free energy ΔΔG” value [1] read?
**A.** The value was 0.72 kcal/mol.

**Q.** For “TKQLEFYACOOH [Sdc1.E4L, Sdc1 point mutant, Leu at position 4]”, which “Exp. relative binding free energy ΔΔG” value [2] is on record?
**A.** Its value is 0.56^e kcal/mol.

**Q.** Which “Exp. relative binding free energy ΔΔG” value [2] does the source give for “TKQEEFYMCOOH [Sdc1.A0M, Sdc1 point mutant, Met at position 0]” here?
**A.** Its value is 1.56^d kcal/mol and 1.56 kcal/mol.

**Q.** Which “Exp. relative binding free energy ΔΔG” value [1] does the source give for YAAGRKHF here?
**A.** Its value is ≥ 1.32^g kcal/mol.

**Q.** Which “Exp. relative binding free energy ΔΔG” value [2] does the source give for “TKQEEIYACOOH [Sdc1.F2I, Sdc1 point mutant, Ile at position 2]” here?
**A.** The value was 0.80^e kcal/mol and 0.80 kcal/mol.

**Q.** Which “Exp. relative binding free energy ΔΔG” value [1] does the source give for SSRKEYYA [Consensus] here?
**A.** Its value is 0.84 kcal/mol.

**Q.** Which “Exp. relative binding free energy ΔΔG” value [1] does the source give for YAAQKHFH here?
**A.** Its value is ≥ 1.32^g kcal/mol.

**Q.** Which “Exp. relative binding free energy ΔΔG” value [2] does the source give for “TKQEEAYACOOH [Sdc1-F2A, Sdc1 point mutant, Ala at position 2]” here?
**A.** The value was at least 1.32 kcal/mol.

**Q.** With “TKQEDFTACOOH [Sdc1.E3D, Y1T, Sdc1 double mutant]” as the substance, how does the “Exp. relative binding free energy ΔΔG” value [2] read?
**A.** The value was 0.87^e kcal/mol.

**Q.** For YAALIHKF, which “Exp. relative binding free energy ΔΔG” value [1] is on record?
**A.** Its value is ≥ 1.32^g kcal/mol.

**Q.** What does the source list for “TKQETFKACOOH [Sdc1.E3T, Y1K, Sdc1 double mutant]”?
**A.** Exp. relative binding free energy ΔΔG [2]: 1.33^e kcal/mol; Exp. relative binding free energy ΔΔG ([2]; listed as Sdc1-E3T,Y1K): 1.33 kcal/mol

**Q.** With Tiam1 PDZ (from UniProt Q13009) as the substance, how does the Kd [3] read?
**A.** Its Kd is 26.9 µM.

**Q.** Which “Exp. relative binding free energy ΔΔG” value [2] does the source give for “TKQEENYACOOH [Sdc1-F2N, Sdc1 point mutant, Asn at position 2]” here?
**A.** Its value is at least 1.32 kcal/mol.

**Q.** For “NKDKEYYV [Neur, peptide corresponding to the C-terminus of Neurexin]”, which “Exp. relative binding free energy ΔΔG” value [4] is on record?
**A.** The value was 1.25 kcal/mol.

**Q.** What about the “Exp. relative binding free energy ΔΔG” value [5] of the same substance?
**A.** Its value is 0.32 kcal/mol.

**Q.** What about the “Exp. relative binding free energy ΔΔG” value [6] of the same substance?
**A.** The value was 1.08 kcal/mol.

**Q.** What does the source list for “ENQKEYFF [Caspr4, peptide corresponding to the C-terminus of Caspr4]”?
**A.** Exp. relative binding free energy ΔΔG [7]: -0.54 kcal/mol; Kd ([7]; strongest binding in the dataset): 10.8 µM; Exp. relative binding free energy ΔΔG [1]: -0.21 kcal/mol; Exp. relative binding free energy ΔΔG [8]: -0.39 kcal/mol; Exp. relative binding free energy ΔΔG [9]: 0.48 kcal/mol; Exp. relative binding free energy ΔΔG [10]: 0.46 kcal/mol; Exp. relative binding free energy ΔΔG [4]: 0.04 kcal/mol; Exp. relative binding free energy ΔΔG [5]: -0.23 kcal/mol; Exp. relative binding free energy ΔΔG [6]: 0.62 kcal/mol

**Q.** For YAARKFAK, which “Exp. relative binding free energy ΔΔG” value [1] is on record?
**A.** The value was ≥ 1.32^g kcal/mol.

**Q.** With “TKQEEFYACOOH [Sdc1, C-terminal peptide of Syndecan1, residues 303–310]” as the substance, how does the “Exp. relative binding free energy ΔΔG” value [7] read?
**A.** Its value is 0.31 kcal/mol.

**Q.** What about the “Exp. relative binding free energy ΔΔG” value [1] of the same substance?
**A.** The value was 0.00 kcal/mol.

**Q.** And the “Exp. relative binding free energy ΔΔG” value [8]?
**A.** Its value is 0.15 kcal/mol.

**Q.** And the “Exp. relative binding free energy ΔΔG” value [9]?
**A.** The value was 0.65 kcal/mol.

**Q.** And the “Exp. relative binding free energy ΔΔG” value [10]?
**A.** The value was 0.97 kcal/mol.

**Q.** And the “Exp. relative binding free energy ΔΔG” value [4]?
**A.** Its value is 1.21 kcal/mol.

**Q.** And the “Exp. relative binding free energy ΔΔG” value [5]?
**A.** The value was 0.89 kcal/mol.

**Q.** What about the “Exp. relative binding free energy ΔΔG” value [6] of the same substance?
**A.** Its value is 1.32 kcal/mol.

**Q.** Which “Exp. relative binding free energy ΔΔG” value [2] does the source give for “TKQEERYACOOH [Sdc1-F2R, Sdc1 point mutant, Arg at position 2]” here?
**A.** Its value is at least 1.32 kcal/mol.

**Q.** What about the “affinity for WT (in words)” value ([2]; this work) of the same substance?
**A.** Its value is “does not have a detectable affinity”.

**Q.** With YAAKRTYV as the substance, how does the “Exp. relative binding free energy ΔΔG” value [1] read?
**A.** The value was ≥ 1.32^g kcal/mol.

**Q.** For “YAAKAFRF [peptide from a combinatorial library]”, which “Exp. relative binding free energy ΔΔG” value [1] is on record?
**A.** The value was 1.17 kcal/mol.

**Q.** Which “Exp. relative binding free energy ΔΔG” value [1] does the source give for YAAYRYRA here?
**A.** Its value is ≥ 1.32^g kcal/mol.
